Results as given in article PMC6387968, “An in vitro ADME and in vivo Pharmacokinetic Study of Novel TB-Active Decoquinate Derivatives” (Frontiers in Pharmacology, 2019).
pIC50: −log10 of the molar value.

Key:
physchem = format: physicochemical; settings: 22 °C, pH 7.4, aqueous buffer, kinetic from dmso stock
Experimental: Stock solutions of each compound prepared in DMSO (10 mM) were spiked in duplicate into phosphate buffer at pH 7.4 (final concentration = 200 μM). Calibration samples were prepared by spiking individual compounds in DMSO at 11, 100, and 220 μM. These were used to generate a calibration curve to determine compound concentrations in the test samples. The samples were agitated for 2 h using a plate shaker (500 rpm, 22°C). Approximately 150 μL of the resulting supernatant was transferred to a 96-well analysis plate and the calibration and test samples were analyzed via HPLC with a diode array detector (Agilent 1200 Rapid Resolution HPLC, Agilent Technologies, Santa Clara, CA, United States) comprising a reverse-phase Gemini-C18 analytical column (5 μm, 50 mm × 2 mm; Phenomenex, Torrance, CA, United States). Mobile phases comprised 0.1% FA in water (A) and 0.1% FA in ACN (B). The run lasted 3 min and a gradient elution method was used (Table 1).

[1] = format: in vitro ADME; settings: pH 7.4
Experimental: The permeability of the compounds was assessed via a PAMPA using a 96-well multiscreen filter plate ([…]). The filter plate was coated with 5% hexadecane in hexane and was allowed to dry before starting the assay. Lucifer yellow was added to the apical side of the filter plate in each well containing test compound solutions prepared in DMSO. A solution of each compound was diluted into phosphate buffer at pH 7.4 (final concentration = 1 μg/mL) and was added to the apical portion of the donor plate. The acceptor plate was filled with blank buffer (pH 7.4). The plates were slotted into each other and agitated at 80 rpm for 4 h at 22°C. Samples from donor and theoretical equilibrium wells were matrix-matched with blank phosphate buffer at pH 7.4. Samples were treated with ACN containing IS (carbamazepine, 23.6 ng/mL) and were submitted for LC-MS/MS analysis on an Agilent Rapid Resolution HPLC and AB Sciex 4500 MS. […] [Wohnsland and Faller, 2001]; [Jung et al., 2006]). where, VA is the volume of the acceptor compartment (0.25 cm^3), VD is the volume of the donor compartment (0.15 cm^3), A is the accessible filter area (0.024 cm^2), and t is the incubation time (s). The peak areas of the samples were used to determine the Papp of each compound using Eq. 3. Papp=C × -ln(1-Acceptor […]/Donor […])

in vitro [2] = format: in vitro ADME; settings: for EH (hepatic extraction ratio) Human / EH (hepatic extraction ratio) Mouse: 0.1 M; for half-life at 0.1 M / microsomal CLint at 0.1 M: microsomes
Experimental: RMB041, -043, and -073 ([…]) prepared in DMSO were incubated separately with 530 μL mouse and human microsomes (0.4 mg/mL) at 37°C with the cofactor NADPH (1 mM). Compounds were assessed at 0 and 60 min. The reaction was stopped by the addition of ice-cold ACN containing IS (carbamazepine, 23.6 ng/mL). The samples were analyzed via LC-MS/MS using the instrumentation and conditions described above. The in vitro half-life, intrinsic clearance rate, and hepatic extraction ratio were predicted using results from this assay in the following equations ([Obach, 1999]). […] EH=Fu × CLint/QH+Fu × CLint Metabolic stability was assessed as the compound's depletion from a starting concentration of […] over 1 h in mouse and human microsomal fractions. The in vitro half-life can be predicted from this assay. The linear regression from a graph relating natural logarithmic percentage of the compound remaining versus the incubation time was used to calculate the half-life, CLint, and EH.

in vitro [3] = format: in vitro ADME; settings: microsomes
Experimental: RMB041, -043, and -073 ([…]) prepared in DMSO were incubated separately with 530 μL mouse and human microsomes (0.4 mg/mL) at 37°C with the cofactor NADPH (1 mM). Compounds were assessed at 0 and 60 min. The reaction was stopped by the addition of ice-cold ACN containing IS (carbamazepine, 23.6 ng/mL). The samples were analyzed via LC-MS/MS using the instrumentation and conditions described above. The in vitro half-life, intrinsic clearance rate, and hepatic extraction ratio were predicted using results from this assay in the following equations ([Obach, 1999]). Metabolic stability was assessed as the compound’s depletion from a starting concentration of […] over 1 h in mouse and human microsomal fractions. The in vitro half-life can be predicted from this assay. The linear regression from a graph relating natural logarithmic percentage of the compound remaining versus the incubation time was used to calculate the half-life, CLint, and EH.

[4] = for Autosampler stability (48 h), Low / Stability, murine whole-blood (-80 °C freeze-thaw), Low / Stability, murine whole-blood (ice, 2 h), Low: 10 ng/mL; for Autosampler stability (48 h), High / IV formulation stability, High / Oral formulation stability, High / Stability, murine whole-blood (-80 °C freeze-thaw), High / Stability, murine whole-blood (ice, 2 h), High: 4000 ng/mL; for IV formulation stability, High / Oral formulation stability, High / Stability, murine whole-blood (ice, 2 h), Low / Stability, murine whole-blood (ice, 2 h), High: 2 h; for Stability, murine whole-blood (-80 °C freeze-thaw), Low / Stability, murine whole-blood (-80 °C freeze-thaw), High / Stability, murine whole-blood (ice, 2 h), Low / Stability, murine whole-blood (ice, 2 h), High: mouse
Experimental: The LC-MS/MS method used was partially validated by assessing recovery from mouse whole-blood, bench-top stability (3 h), auto-sampler stability (48 h), formulation stability (oral and IV, 2 h), freeze-thaw stability (3 cycles), and matrix effects (details in Supplementary Material). Partial method validation, comprising several tests to determine whether the compounds were stable in each possible experimental situation involved with sample collection, storage, and processing, was performed. These tests included: (i) compound stability in mouse whole-blood (on ice and at -80°C), (ii) compound stability in the autosampler, (iii) compound stability in oral and intravenous formulations, (iv) matrix effects (ME), and (v) compound recovery. In this study, stability is reported as a percentage, reflecting the stability of the compound in relation to a fresh sample prepared just before analysis.

Mtb H37Rv = system: Mtb H37Rv; design: method as in Beteck et al., 2018; settings: in vitro, Mtb H37Rv; ref Beteck et al., 2018; cited from earlier work
[5] = system: Chinese hamster ovarian (CHO) cell-lines; settings: cited from earlier work

Row | SMILES | solubility kinetic at 2 h (physchem) [µM] | PAMPA Log Papp [1] | EH (hepatic extraction ratio) Human (in vitro [2]) | EH (hepatic extraction ratio) Mouse (in vitro [2]) | half-life at 0.1 M (in vitro [2]; human) [min] | microsomal CLint at 0.1 M (in vitro [2]; human) [µL/min/mg] | half-life at 0.1 M (in vitro [2]; mouse) [min] | microsomal CLint at 0.1 M (in vitro [2]; mouse) [µL/min/mg] | half-life at 0.1 M (in vitro [3]) [min] | microsomal CLint at 0.1 M (in vitro [3]) [µL/min/mg] | Autosampler stability (48 h), Low [4] [%] | Autosampler stability (48 h), High [4] [%] | IV formulation stability, High [4] [%] | Oral formulation stability, High [4] [%] | Stability, murine whole-blood (-80 °C freeze-thaw), Low [4] [%] | Stability, murine whole-blood (-80 °C freeze-thaw), High [4] [%] | Stability, murine whole-blood (ice, 2 h), Low [4] [%] | Stability, murine whole-blood (ice, 2 h), High [4] [%] | 90% minimum inhibitory concentration (MIC90) (Mtb H37Rv) [µM] | pIC50 [5]
1 | CCCCCCCCCCOc1cc2c(=O)c(C(=O)NCCOCCO)cn(CC)c2cc1OCC [RMB041] | > 150 | -4.8 | <0.43 | <0.3 | > 150 | 16 | > 150 | 26.8 | > 150 | < 20 | 92.1 | 94.1 | 90.3 | 98.0 | 99.2 | 98.7 | 89.2 | 91.2 | 1.61 | 4.70
2 | CCCCCCCCCCOc1cc2c(=O)c(C(=O)NCCNCCO)cn(CC)c2cc1OCC [RMB043] | > 150 | -4.8 | 0.4 | 0.51 | 85 | 83 | 60 | 109 | < 100 | < 110 | 99.8 | 99.1 | 93.1 | 89.0 | 91.3 | 92.5 | 102.4 | 109.0 | 4.18 | 4.10
3 | CCCCCCCCCCOc1cc2c(=O)c(C(=O)NCCOCCO)cn(CCO)c2cc1OCC [RMB073] | > 150 | -4.5 | <0.43 | <0.3 | > 150 | 7.78 | > 150 | 15 | > 150 | < 20 | 105.3 | 102.0 | 98.8 | 89.3 | 89.5 | 97.3 | 87.6 | 92.3 | 1.88 | 4.47
